Values quoted from earlier work, collected in US20020160947A1, “Synergistic method for prolonging allograft survival” (Millennium Pharmaceuticals, Inc., priority 2001, published 2002).

System: activated T-cells
Conditions: activated versus resting T cells

CC(=O)N[C@@H](CSC(=O)[C@]1([C@@H](O)C(C)C)NC(=O)[C@H](C)[C@@H]1O)C(=O)O [lactacystin]
induction of apoptosis of T cells: induction of apoptosis of activated T-cells, but not resting T cells
